Measurements taken from patent US11866509B2, “Humanized antibodies against CEACAM1” (Famewave Ltd., priority 2014, dated 2024).

How the values were obtained:
[1] = system: B-Raf V600E cell samples (526mel, 624mel); test: T-cell induced killing of melanoma cells, LDH release; format: cell-based, human; conditions: 1 μM, effector-target ratio 5:1, overnight
Description: More specifically, whereas only 50% ( 3/6) of the melanoma cells having a wild type B-Raf, i.e. a valine in position 600, expressed detectable levels of CEACAM1 (Ct of 36 and less), 100% (18/18) of the melanoma cells having a mutated B-Raf, i.e. a glutamic acid in position 600, expressed detectable levels of CEACAM1 (Ct of 36 and less). • B. CEACAM1 extracellular staining of cancer cells treated with B-Raf or MEK inhibitors. […] At each time point, CEACAM1 expression on the cells was determined by FACS. Volume equivalents of DMSO (vehicle) were used as control. […] Inhibitor-resistant cancer cells show increase in CEACAM1 expression and restored activity of MAPK pathway. Two vemurafenib-sensitive B-Raf V600E cell samples (526mel, 624mel) and vemurafenib-resistant cell lines derived therefrom were incubated for 2 days with 1 μM vemurafenib. Cells were then analyzed for CEACAM1 protein expression by FACS as described above. […] MAPK activity was measured in vemurafenib-sensitive and vemurafenib-resistant B-Raf V600E (624mel) cell samples by immunoblotting for phosphorylated ERK1/2 (pERK, Thr202/Tyr204), total ERK1/2 and actin after 24 hours of exposure to 160 nM vemurafenib. […] Initial vemurafenib concentration was 0.01 of the determined IC50 (0.64 nM). […] Cell killing was determined by LDH release. […]

[2] = system: CEACAM1 expression on sk-mel-2 cells; test: CEACAM1 extracellular staining by FACS, W.T. B-Raf mutated N-Ras cells; format: cell-based, human; conditions: 1 μM
Description: Volume equivalents of DMSO (vehicle) were used as control. […] Cells were then analyzed for CEACAM1 protein expression by FACS as described above. Vemurafenib-resistant cell lines were generated by gradual increase of the inhibitor's concentration in culture, up to 0.32 μM. […] Cells were then tested for CEACAM1 expression using MRG1 (murine antibody to human CEACAM1) in flow cytometry as described above. Total RNA was extracted with TRIZOL and cDNA was generated with a reverse transcriptase, according to routine protocols.

[3] = molecular target: T1, CEACAM1 (Homo sapiens, UniProt P13688); conditions: WO 2010/125571, WO 2013/054331; cited from earlier work
T1 sequence (P13688 35-526): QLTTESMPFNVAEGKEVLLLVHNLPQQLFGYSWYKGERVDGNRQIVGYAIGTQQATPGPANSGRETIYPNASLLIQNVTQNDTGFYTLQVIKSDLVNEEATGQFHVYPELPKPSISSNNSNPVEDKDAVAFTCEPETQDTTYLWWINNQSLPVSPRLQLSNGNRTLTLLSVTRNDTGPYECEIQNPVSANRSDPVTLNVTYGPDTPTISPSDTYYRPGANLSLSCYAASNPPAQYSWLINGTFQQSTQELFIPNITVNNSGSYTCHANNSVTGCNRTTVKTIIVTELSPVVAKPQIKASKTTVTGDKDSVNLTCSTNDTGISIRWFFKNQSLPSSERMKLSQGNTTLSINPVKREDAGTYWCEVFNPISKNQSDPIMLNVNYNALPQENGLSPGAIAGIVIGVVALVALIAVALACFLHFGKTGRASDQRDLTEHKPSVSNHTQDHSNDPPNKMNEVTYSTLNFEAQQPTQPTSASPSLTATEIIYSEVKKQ

| Molecule | sensitization to cytotoxic T cells [1] | effect on CEACAM1 expression levels [2] | selectivity to CEACAM1 [3] |
| --- | --- | --- | --- |
| CCCS(=O)(=O)Nc1ccc(F)c(C(=O)c2c[nH]c3ncc(-c4ccc(Cl)cc4)cc23)c1F [vemurafenib] | significantly sensitizes melanoma cells to cytotoxic T cells | no effect |  |
| CM-10: chimeric anti-CEACAM-1 antibody disclosed in WO 2013/054331 (antibody, V domains shown) VH: QVQLQQSGAELVRPGTSVKVSCKASGYAFTNNLIEWVKQRPGQGLEWIGVINPGSGDTNYNEKFKGKATLTADKSSNTAYMQLSSLTSDDSAVYFCARGDYYGGFAVDYWGQGTSVTVSS VL: DIQMTQTTSSLSASLGDRVTISCRTSQDIGNYLNWYQQKPDGTVKLLIYYTSRLHSGVPSRFSGSGSGTDYSLTISNLEQEDIATYFCQQGKSLPRTFGGGTKLEIK |  |  | highly selective to CEACAM1 |
